Data from PMC11157048 (Frontiers in Pharmacology, 2024).

Tests used:
[1] = Pharmacokinetics in AAV8-CYP3A4*1 mice; details: C57BL/6J, mouse, in vivo, po, 16.5 mg/kg; for CL/F: CLz/F; for Vd/F: Vz/F; for half-life: t1/2z
CYP3A4.1 = CYP3A4.1 (Homo sapiens, UniProt P08684); test: Enzyme kinetics of aumolertinib, recombinant CYP3A4.1; format: in vitro ADME; design: made in house; host or cells: Sf21 insect cells (baculovirus); details: CYP3A4.1, text value
Description: Specifically, first the pFastBac-CYPOR-CYP3A4 and CYPb5 plasmids are constructed, then the plasmids are transformed into DH10Bac cells to obtain the bacmid DNA. Subsequently, the bacmid DNA is transfected into Sf21 insect cells to generate high titer recombinant baculoviruses. After infecting the Sf21 cells with the high titer baculovirus, the cell suspension is collected. Finally, the cells are disrupted by sonication, and the microsomes are prepared by ultracentrifugation. To examine the expression of the target proteins and the CYP content, Western blot analysis and carbon monoxide difference spectroscopy were performed, respectively.
The reaction start, termination and sample processing are the same as described above.

[2] = Pharmacokinetics in AAV8-CYP3A4*12 mice; details: C57BL/6J, mouse, serum, po, 16.5 mg/kg; for CL/F: CLz/F; for Vd/F: Vz/F; for half-life: t1/2z
[3] = Pharmacokinetics in AAV8-Ctrl mice; details: C57BL/6J, mouse, serum, po, 16.5 mg/kg; for CL/F: CLz/F; for Vd/F: Vz/F; for half-life: t1/2z
[4] = Pharmacokinetics of aumolertinib and HAS-719 in SD rats; details: for AUC(0-t) / AUC(0-inf) / CL/F / Cmax / Tmax / Vd/F / half-life: Sprague-Dawley, rat, plasma, po, 11 mg/kg; for CL/F: CLz/F; for Vd/F: Vz/F; for half-life: t1/2z
[5] = aumolertinib 16.5 mg/kg oral alone (Aum)
[6] = carvedilol 7.5 mg/kg 0.5 h before aumolertinib 16.5 mg/kg oral (Car+Aum)
[7] = telmisartan 12 mg/kg 0.5 h before aumolertinib 16.5 mg/kg oral (Tel+Aum)
[8] = aumolertinib 11 mg/kg oral alone (Aum)
[9] = carvedilol 5 mg/kg oral 0.5 h before aumolertinib 11 mg/kg oral (Car + Aum)
[10] = telmisartan 8 mg/kg oral 0.5 h before aumolertinib 11 mg/kg oral (Tel + Aum)

CYP3A4.1, sequence (P08684 whole entry): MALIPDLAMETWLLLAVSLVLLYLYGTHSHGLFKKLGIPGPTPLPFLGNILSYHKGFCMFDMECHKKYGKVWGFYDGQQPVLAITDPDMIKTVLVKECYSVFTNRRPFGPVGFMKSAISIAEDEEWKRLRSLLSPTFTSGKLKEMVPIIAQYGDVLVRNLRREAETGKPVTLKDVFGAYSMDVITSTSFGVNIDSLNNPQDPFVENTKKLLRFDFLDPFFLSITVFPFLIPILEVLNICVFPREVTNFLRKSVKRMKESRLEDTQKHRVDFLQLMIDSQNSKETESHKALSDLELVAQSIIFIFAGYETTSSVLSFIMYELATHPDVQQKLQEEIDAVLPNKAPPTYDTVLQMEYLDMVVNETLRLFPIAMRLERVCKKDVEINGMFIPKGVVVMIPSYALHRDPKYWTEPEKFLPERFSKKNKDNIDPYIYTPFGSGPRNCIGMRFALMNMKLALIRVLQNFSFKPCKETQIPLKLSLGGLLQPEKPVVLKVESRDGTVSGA

## C=CC(=O)Nc1cc(Nc2nccc(-c3cn(C4CC4)c4ccccc34)n2)c(OC)cc1N(C)CCN(C)C [Aumolertinib]
[1]; [5]
  AUC(0-t): 1370 ng·h/mL
  AUC(0-inf): 1390 ng·h/mL
  CL/F: 221 mL/min/kg
  Cmax: 95.4 ± 26.4 ng/mL
  Tmax: 1.64 ± 1.18 h
  Vd/F: 165 ± 125 L/kg
  half-life: 7.89 ± 2.76 h
[1]; [6]
  AUC(0-t): 1730 ng·h/mL
  AUC(0-inf): 1970 ng·h/mL
  CL/F: 145 mL/min/kg
  Cmax: 96.5 ± 39 ng/mL
  Tmax: 11.6 ± 11.7 h
  Vd/F: 105 ± 73.6 L/kg
  half-life: 9.63 ± 8.92 h
[1]; [7]
  AUC(0-t): 2890 ng·h/mL
  AUC(0-inf): 3710 ng·h/mL
  CL/F: 110 mL/min/kg
  Cmax: 154 ± 62.7 ng/mL
  Tmax: 16.3 ± 14.1 h
  Vd/F: 49.9 ± 33.6 L/kg
  half-life: 5.75 ± 3.22 h
CYP3A4.1
  Clint: 0.58 μL/min/pmol CYP
CYP3A4.1; human, recombinant CYP3A4.1 cell microsomes (Sf21 insect cells)
  Km: 3.2 µM
[2]; [5]
  AUC(0-t): 3300 ng·h/mL
  AUC(0-inf): 3460 ng·h/mL
  CL/F: 87.2 mL/min/kg
  Cmax: 194 ± 48.8 ng/mL
  Tmax: 5.14 ± 8.32 h
  Vd/F: 83.2 ± 30.5 L/kg
  half-life: 11.9 ± 5.16 h
[2]; [6]
  AUC(0-t): 2480 ng·h/mL
  AUC(0-inf): 2510 ng·h/mL
  CL/F: 124 mL/min/kg
  Cmax: 143 ± 102 ng/mL
  Tmax: 8 ± 7.57 h
  Vd/F: 70.4 ± 38.6 L/kg
  half-life: 6.44 ± 2.34 h
[2]; [7]
  AUC(0-t): 4460 ng·h/mL
  AUC(0-inf): 8020 ng·h/mL
  CL/F: 51.3 mL/min/kg
  Cmax: 186 ± 74.4 ng/mL
  Tmax: 9.43 ± 10.2 h
  Vd/F: 90.3 ± 85 L/kg
  half-life: 29.1 ± 28.9 h
[3]; [5]
  AUC(0-t): 1800 ng·h/mL
  AUC(0-inf): 1850 ng·h/mL
  CL/F: 148 mL/min/kg
  Cmax: 177 ± 59.9 ng/mL
  Tmax: 1.29 ± 0.49 h
  Vd/F: 98.8 ± 56.3 L/kg
  half-life: 8.21 ± 5.1 h
[3]; [6]
  AUC(0-t): 1970 ng·h/mL
  AUC(0-inf): 1980 ng·h/mL
  CL/F: 145 mL/min/kg
  Cmax: 99.8 ± 27.5 ng/mL
  Tmax: 17.7 ± 10.7 h
  Vd/F: 38.6 ± 23.7 L/kg
  half-life: 3.12 ± 1.79 h
[3]; [7]
  AUC(0-t): 3230 ng·h/mL
  AUC(0-inf): 3810 ng·h/mL
  CL/F: 83 mL/min/kg
  Cmax: 163 ± 65.6 ng/mL
  Tmax: 2.43 ± 1.13 h
  Vd/F: 68.2 ± 44.6 L/kg
  half-life: 9.43 ± 4.77 h
[4]; [8]
  AUC(0-t): 65.9 ± 27.6 ng·h/mL
  AUC(0-inf): 65.9 ± 27.6 ng·h/mL
  CL/F: 3090 mL/min/kg
  Cmax: 9.48 ± 3.93 ng/mL
  Tmax: 5.17 ± 1.33 h
  Vd/F: 675 ± 273 L/kg
  half-life: 2.62 ± 0.94 h
[4]; [9]
  AUC(0-t): 198 ± 121 ng·h/mL
  AUC(0-inf): 203 ± 133 ng·h/mL
  CL/F: 1150 mL/min/kg
  Cmax: 21.8 ± 8 ng/mL
  Tmax: 7.33 ± 2.42 h
  Vd/F: 375 ± 140 L/kg
  half-life: 4.44 ± 2.79 h
[4]; [10]
  AUC(0-t): 153 ± 175 ng·h/mL
  AUC(0-inf): 153 ± 175 ng·h/mL
  CL/F: 2060 mL/min/kg
  Cmax: 8.73 ± 7.55 ng/mL
  Tmax: 8.67 ± 2.73 h
  Vd/F: 582 ± 299 L/kg
  half-life: 3.21 ± 0.24 h
[4]; carvedilol 5 mg/kg + aumolertinib 11 mg/kg oral vs aumolertinib alone
  increase of AUC(0-t) after combination with carvedilol: more than 3 time
